Key:
Experiment in all cases: biochemical
Set-up in all cases: GPCR, ion channel and transporter panel, per cent inhibition of binding, mean of four
[1] = target: T1, 5-HT1B (Homo sapiens, UniProt P28222)
T1 construct: gene HTR1B
Procedure: (§1) We next assessed selectivity of MS67 against 22 protein methyltransferases (table S2) and a broad panel of common drug targets including 45 kinases (table S3) and 44 G protein–coupled receptors (GPCR), ion channels, and transporters (table S4). […] We subsequently determined that MS67 had moderate binding affinity (Ki = 1.0 ± 0.8 μM) to Sigma 2 receptor (fig. S10).

[2] = target: T2, 5-HT1E (Homo sapiens, UniProt P28566)
T2 construct: gene HTR1E
Procedure: as §1

[3] = target: T3, 5-HT2C (Homo sapiens, UniProt P28335)
T3 construct: gene HTR2C
Procedure: as §1

[4] = target: T4, 5-HT6 (Homo sapiens, UniProt P50406)
T4 construct: gene HTR6
Procedure: as §1

[5] = target: T5, 5-HT7A (Homo sapiens, UniProt P34969)
T5 construct: gene HTR7; isoform 7A
Procedure: as §1

[6] = target: T6, Alpha1B (Homo sapiens, UniProt P35368)
T6 construct: gene ADRA1B
Procedure: as §1

[7] = target: T7, Alpha1D (Homo sapiens, UniProt P25100)
T7 construct: gene ADRA1D
Procedure: as §1

[8] = target: T8, Alpha2A (Homo sapiens, UniProt P08913)
T8 construct: gene ADRA2A
Procedure: as §1

[9] = target: T9, Alpha2C (Homo sapiens, UniProt P18825)
T9 construct: gene ADRA2C
Procedure: as §1

[10] = target: T10, Beta3 (Homo sapiens, UniProt P13945)
T10 construct: gene ADRB3
Procedure: as §1

[11] = target: T11, D1 (Homo sapiens, UniProt P21728)
T11 construct: gene DRD1
Procedure: as §1

[12] = target: T12, D2 (Homo sapiens, UniProt P14416)
T12 construct: gene DRD2
Procedure: as §1

[13] = target: T13, D3 (Homo sapiens, UniProt P35462)
T13 construct: gene DRD3
Procedure: as §1

[14] = target: T14, D4 (Homo sapiens, UniProt P21917)
T14 construct: gene DRD4
Procedure: as §1

[15] = target: T15, D5 (Homo sapiens, UniProt P21918)
T15 construct: gene DRD5
Procedure: as §1

[16] = target: T16, DAT (Homo sapiens, UniProt Q01959)
T16 construct: gene SLC6A3
Procedure: as §1

[17] = target: T17, H1 (Homo sapiens, UniProt P35367)
T17 construct: gene HRH1
Procedure: as §1

[18] = target: T18, H2 (Homo sapiens, UniProt P25021)
T18 construct: gene HRH2
Procedure: as §1

[19] = target: T19, H3 (Homo sapiens, UniProt Q9Y5N1)
T19 construct: gene HRH3
Procedure: as §1

[20] = target: T20, H4 (Homo sapiens, UniProt Q9H3N8)
T20 construct: gene HRH4
Procedure: as §1

[21] = target: T21, KOR (Homo sapiens, UniProt P41145)
T21 construct: gene OPRK1
Procedure: as §1

[22] = target: T22, M2 (Homo sapiens, UniProt P08172)
T22 construct: gene CHRM2
Procedure: as §1

[23] = target: T23, M4 (Homo sapiens, UniProt P08173)
T23 construct: gene CHRM4
Procedure: as §1

[24] = target: T24, MOR (Homo sapiens, UniProt P35372)
T24 construct: gene OPRM1
Procedure: as §1

[25] = target: T25, Sigma 1 (Homo sapiens, UniProt Q99720)
T25 construct: gene SIGMAR1
Procedure: as §1

[26] = target: T26, Sigma 2 (Homo sapiens, UniProt Q5BJF2)
T26 construct: gene TMEM97
Procedure: as §1

T8 sequence (P08913 whole entry): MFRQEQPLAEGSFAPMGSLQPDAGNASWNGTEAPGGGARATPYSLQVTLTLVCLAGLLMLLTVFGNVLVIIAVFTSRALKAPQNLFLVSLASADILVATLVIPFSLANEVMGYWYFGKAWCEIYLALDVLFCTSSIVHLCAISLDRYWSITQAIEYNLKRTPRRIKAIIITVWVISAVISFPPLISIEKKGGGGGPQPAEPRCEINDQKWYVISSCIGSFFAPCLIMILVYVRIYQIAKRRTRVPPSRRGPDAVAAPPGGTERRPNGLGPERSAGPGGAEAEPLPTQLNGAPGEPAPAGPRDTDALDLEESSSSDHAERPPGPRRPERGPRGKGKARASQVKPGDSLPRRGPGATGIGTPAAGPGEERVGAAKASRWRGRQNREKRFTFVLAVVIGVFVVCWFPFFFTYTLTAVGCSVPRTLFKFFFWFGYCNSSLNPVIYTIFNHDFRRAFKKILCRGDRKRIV
T14 sequence (P21917 whole entry): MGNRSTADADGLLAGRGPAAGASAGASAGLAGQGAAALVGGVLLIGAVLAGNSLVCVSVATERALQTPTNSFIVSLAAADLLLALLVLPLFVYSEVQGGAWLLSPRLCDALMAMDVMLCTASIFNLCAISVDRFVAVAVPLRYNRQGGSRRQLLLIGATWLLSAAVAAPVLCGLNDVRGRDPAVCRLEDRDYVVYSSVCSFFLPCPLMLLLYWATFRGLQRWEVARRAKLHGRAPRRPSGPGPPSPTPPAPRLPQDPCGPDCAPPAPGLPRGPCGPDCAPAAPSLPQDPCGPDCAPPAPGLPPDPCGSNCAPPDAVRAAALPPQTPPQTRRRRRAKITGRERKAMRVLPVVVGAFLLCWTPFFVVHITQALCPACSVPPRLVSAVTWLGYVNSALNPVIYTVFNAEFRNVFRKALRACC
T3 sequence (P28335 whole entry): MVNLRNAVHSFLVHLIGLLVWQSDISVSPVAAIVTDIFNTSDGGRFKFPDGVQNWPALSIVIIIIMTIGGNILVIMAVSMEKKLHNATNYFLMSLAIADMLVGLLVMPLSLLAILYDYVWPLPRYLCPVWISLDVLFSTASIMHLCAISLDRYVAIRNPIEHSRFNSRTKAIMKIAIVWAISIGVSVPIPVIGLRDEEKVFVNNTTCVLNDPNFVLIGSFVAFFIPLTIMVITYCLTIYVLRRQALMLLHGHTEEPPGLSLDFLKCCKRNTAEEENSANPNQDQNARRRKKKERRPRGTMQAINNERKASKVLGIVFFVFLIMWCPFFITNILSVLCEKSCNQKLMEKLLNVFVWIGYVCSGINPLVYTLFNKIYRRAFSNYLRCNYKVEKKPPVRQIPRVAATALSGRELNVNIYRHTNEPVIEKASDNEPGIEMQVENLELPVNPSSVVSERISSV
T9 sequence (P18825 whole entry): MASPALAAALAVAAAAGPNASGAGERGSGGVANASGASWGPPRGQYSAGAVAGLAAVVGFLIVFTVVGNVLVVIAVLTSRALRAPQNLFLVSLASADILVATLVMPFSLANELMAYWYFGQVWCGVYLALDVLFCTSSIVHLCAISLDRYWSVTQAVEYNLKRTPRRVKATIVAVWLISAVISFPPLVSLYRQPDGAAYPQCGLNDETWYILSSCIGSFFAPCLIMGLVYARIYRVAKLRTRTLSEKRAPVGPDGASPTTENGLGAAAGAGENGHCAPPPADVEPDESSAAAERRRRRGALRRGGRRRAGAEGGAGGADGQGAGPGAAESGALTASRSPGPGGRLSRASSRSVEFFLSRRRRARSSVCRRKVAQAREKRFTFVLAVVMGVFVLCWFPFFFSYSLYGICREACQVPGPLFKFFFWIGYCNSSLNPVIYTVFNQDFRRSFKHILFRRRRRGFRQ
T26 sequence (Q5BJF2 whole entry): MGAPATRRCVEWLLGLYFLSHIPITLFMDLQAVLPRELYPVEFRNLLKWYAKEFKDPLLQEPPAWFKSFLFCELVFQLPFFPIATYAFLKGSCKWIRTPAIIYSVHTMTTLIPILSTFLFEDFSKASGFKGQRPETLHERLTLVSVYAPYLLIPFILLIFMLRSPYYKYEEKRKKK
T4 sequence (P50406 whole entry): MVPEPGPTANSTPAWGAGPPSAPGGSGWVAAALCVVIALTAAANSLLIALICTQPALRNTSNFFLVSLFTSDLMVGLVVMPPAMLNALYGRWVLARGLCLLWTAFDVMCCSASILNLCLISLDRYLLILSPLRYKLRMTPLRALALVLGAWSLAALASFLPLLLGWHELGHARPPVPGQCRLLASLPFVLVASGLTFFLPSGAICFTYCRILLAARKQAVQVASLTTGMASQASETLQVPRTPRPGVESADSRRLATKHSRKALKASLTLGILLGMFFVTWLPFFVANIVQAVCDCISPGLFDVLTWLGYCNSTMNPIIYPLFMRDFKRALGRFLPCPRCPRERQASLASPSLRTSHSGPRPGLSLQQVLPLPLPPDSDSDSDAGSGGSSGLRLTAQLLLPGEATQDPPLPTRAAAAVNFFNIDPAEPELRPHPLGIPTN
T5 sequence (P34969 whole entry, canonical isoform): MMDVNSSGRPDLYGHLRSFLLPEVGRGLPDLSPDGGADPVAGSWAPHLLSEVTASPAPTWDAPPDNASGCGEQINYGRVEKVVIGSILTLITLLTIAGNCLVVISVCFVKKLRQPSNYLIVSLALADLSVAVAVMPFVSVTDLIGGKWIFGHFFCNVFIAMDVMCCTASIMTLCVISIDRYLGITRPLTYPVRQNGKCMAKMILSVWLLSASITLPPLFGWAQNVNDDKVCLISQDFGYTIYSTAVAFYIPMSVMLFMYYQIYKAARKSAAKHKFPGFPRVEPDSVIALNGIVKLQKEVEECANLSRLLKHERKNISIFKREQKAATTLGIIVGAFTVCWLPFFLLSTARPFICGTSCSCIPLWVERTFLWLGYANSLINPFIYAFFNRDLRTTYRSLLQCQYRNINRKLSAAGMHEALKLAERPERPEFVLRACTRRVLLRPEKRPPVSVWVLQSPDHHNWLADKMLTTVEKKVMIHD
T16 sequence (Q01959 whole entry): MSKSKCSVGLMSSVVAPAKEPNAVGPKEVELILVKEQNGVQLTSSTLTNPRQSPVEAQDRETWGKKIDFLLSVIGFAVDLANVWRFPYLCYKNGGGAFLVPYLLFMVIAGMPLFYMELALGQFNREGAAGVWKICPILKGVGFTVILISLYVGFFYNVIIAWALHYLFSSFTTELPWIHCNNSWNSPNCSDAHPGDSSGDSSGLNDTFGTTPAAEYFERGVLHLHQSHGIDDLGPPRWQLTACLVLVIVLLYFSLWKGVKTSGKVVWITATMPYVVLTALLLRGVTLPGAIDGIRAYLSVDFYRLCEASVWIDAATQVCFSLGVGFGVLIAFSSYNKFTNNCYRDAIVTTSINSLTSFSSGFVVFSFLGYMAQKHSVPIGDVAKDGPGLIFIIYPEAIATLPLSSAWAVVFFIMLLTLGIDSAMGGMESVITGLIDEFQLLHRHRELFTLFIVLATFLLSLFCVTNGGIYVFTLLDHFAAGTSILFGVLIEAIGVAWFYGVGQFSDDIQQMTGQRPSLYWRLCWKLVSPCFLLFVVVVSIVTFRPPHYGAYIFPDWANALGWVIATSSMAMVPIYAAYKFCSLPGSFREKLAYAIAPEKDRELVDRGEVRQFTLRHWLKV
T11 sequence (P21728 whole entry): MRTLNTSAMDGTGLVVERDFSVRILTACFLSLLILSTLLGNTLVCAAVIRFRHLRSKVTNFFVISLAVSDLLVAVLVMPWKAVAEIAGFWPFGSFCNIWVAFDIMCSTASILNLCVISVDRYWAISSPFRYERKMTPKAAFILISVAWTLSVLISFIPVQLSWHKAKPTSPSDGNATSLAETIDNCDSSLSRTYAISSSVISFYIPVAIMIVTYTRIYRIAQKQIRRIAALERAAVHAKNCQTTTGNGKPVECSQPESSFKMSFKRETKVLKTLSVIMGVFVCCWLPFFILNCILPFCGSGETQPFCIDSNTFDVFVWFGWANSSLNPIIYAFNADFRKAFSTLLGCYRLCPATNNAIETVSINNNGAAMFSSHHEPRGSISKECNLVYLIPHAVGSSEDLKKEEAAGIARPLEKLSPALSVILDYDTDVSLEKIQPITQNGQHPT
T12 sequence (P14416 whole entry): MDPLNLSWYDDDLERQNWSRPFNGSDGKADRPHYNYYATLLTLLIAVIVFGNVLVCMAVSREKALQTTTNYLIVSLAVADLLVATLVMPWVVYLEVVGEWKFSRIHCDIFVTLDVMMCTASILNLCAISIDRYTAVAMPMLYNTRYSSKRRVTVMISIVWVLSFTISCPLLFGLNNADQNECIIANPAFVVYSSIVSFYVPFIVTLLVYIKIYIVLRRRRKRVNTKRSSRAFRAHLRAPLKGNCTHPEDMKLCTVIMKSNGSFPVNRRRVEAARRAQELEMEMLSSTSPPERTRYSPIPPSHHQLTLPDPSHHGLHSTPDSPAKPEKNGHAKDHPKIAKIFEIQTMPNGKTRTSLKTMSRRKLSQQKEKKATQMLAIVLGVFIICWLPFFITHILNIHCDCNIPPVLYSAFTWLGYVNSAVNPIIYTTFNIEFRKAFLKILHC
T15 sequence (P21918 whole entry): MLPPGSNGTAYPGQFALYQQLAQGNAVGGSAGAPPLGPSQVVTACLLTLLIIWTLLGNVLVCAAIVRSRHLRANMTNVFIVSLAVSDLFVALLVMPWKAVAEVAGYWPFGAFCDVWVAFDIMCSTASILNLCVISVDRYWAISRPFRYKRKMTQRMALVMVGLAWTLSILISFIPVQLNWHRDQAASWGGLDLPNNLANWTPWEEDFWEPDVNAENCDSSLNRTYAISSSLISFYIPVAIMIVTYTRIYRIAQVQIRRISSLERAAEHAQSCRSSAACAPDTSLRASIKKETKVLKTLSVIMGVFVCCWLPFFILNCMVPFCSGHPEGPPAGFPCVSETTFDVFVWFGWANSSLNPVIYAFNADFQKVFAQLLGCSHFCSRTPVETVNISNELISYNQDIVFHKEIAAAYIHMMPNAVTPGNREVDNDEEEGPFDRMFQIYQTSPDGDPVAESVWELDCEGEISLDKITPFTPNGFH

`Cc1ncsc1-c1ccc([C@H](C)NC(=O)[C@@H]2C[C@@H](O)CN2C(=O)[C@@H](NC(=O)CNC(=O)c2ccc(F)c(-c3ccc(N4C[C@@H](C)N(C)[C@@H](C)C4)c(NC(=O)c4c[nH]c(=O)cc4C(F)(F)F)c3)c2)C(C)(C)C)cc1` [MS67] gave an inhibition at 1 µM [1] of 5.37%, an inhibition at 1 µM [2] of 0.02% and an inhibition at 1 µM [3] of 3.09%. The inhibition at 1 µM [4] was 13.7%, the inhibition at 1 µM [5] was 12% and the inhibition at 1 µM [6] was 27.6%. For the same molecule, the inhibition at 1 µM [7] was 28.5%, the inhibition at 1 µM [8] was 21.3% and the inhibition at 1 µM [9] was 1.35%. It also gave an inhibition at 1 µM [10] of 32%, an inhibition at 1 µM [11] of 18.7% and an inhibition at 1 µM [12] of 25.5%. For the same molecule, the inhibition at 1 µM [13] was 22.9%, the inhibition at 1 µM [14] was 5.81% and the inhibition at 1 µM [15] was 22.1%. The inhibition at 1 µM [16] was 40.8%, the inhibition at 1 µM [17] was 15.9% and the inhibition at 1 µM [18] was 19.7%. It also gave an inhibition at 1 µM [19] of 21.1%, an inhibition at 1 µM [20] of 21.9% and an inhibition at 1 µM [21] of 26.3%. It also gave an inhibition at 1 µM [22] of 31.1%, an inhibition at 1 µM [23] of 30.9% and an inhibition at 1 µM [24] of 21.7%. The inhibition at 1 µM [25] was 48.8% and the inhibition at 1 µM [26] was 66.6%.
